Calls of active or inactive are those of the source. The calls are words filed in the database; no cut-off is given here.
Columns and labels:
[1] = test system: SH-SY5Y; assay: Neuroprotective activity against MPP-induced cytotoxicity in human SH-SY5Y cells assessed as decrease in Bak mRNA expression level at 10 umol/L by RT-qPCR analysis; type: functional, cell-based; details: dose 10.0 µmol/L
[2] = test system: Mycobacterium tuberculosis; assay: Antitubercular activity against wild type Mycobacterium tuberculosis mc2 6230 assessed as bacterial growth inhibition incubated for 5 days by resazurin microtiter assay; type: functional; details: mc2 6230, 120 h, time 5 day
[3] = test system: Trichophyton rubrum; assay: Antifungal activity against Trichophyton rubrum NBRC 9185 assessed as inhibition of fungal growth incubated for 96 hrs by CLSI protocol based analysis; type: functional
[4] = test system: SH-SY5Y; assay: Neuroprotective activity against MPP-induced cytotoxicity in human SH-SY5Y cells assessed as decrease in cell death at 10 umol/L preincubated with compound for 24 hrs followed by MPP addition and measured after 24 hrs by MTT assay; type: functional, cell-based; details: dose 10.0 µmol/L, time 48.0 hrs
[5] = test system: Klebsiella pneumoniae; assay: Antibacterial activity against Klebsiella pneumoniae ATCC 10031 assessed as reduction in bacterial growth after 24 hrs by CLSI protocol based analysis; type: functional
[6] = test system: Enterococcus faecium; assay: Antibacterial activity against Enterococcus faecium ATCC 19434 assessed as reduction in bacterial growth after 24 hrs by CLSI protocol based analysis; type: functional
[7] = test system: SH-SY5Y; assay: Neuroprotective activity against MPP-induced cytotoxicity in human SH-SY5Y cells assessed as increase in Bcl-xL mRNA expression level at 10 umol/L by RT-qPCR analysis; type: functional, cell-based; details: dose 10.0 µmol/L
[8] = test system: Escherichia coli; assay: Antibacterial activity against Escherichia coli ATCC 25922 assessed as reduction in bacterial growth after 24 hrs by CLSI protocol based analysis; type: functional
[9] = test system: Staphylococcus aureus; assay: Antibacterial activity against methicillin-resistant Staphylococcus aureus ATCC 43300 assessed as reduction in bacterial growth incubated for 24 hrs by CLSI protocol based analysis; type: functional
[10] = test system: Trichophyton mentagrophytes; assay: Antifungal activity against Trichophyton mentagrophytes IFM 40996 assessed as inhibition of fungal growth incubated for 96 hrs by CLSI protocol based analysis; type: functional
[11] = test system: Staphylococcus aureus; assay: Antibacterial activity against Staphylococcus aureus ATCC 25923 assessed as reduction in bacterial growth incubated for 24 hrs by CLSI protocol based analysis; type: functional
[12] = test system: Aspergillus fumigatus; assay: Antifungal activity against Aspergillus fumigatus HIC 6094 assessed as inhibition of fungal growth incubated for 48 hrs by CLSI protocol based analysis; type: functional
[13] = test system: Candida albicans; assay: Antifungal activity against Candida albicans ATCC 10231 assessed as reduction in fungal growth incubated for 24 hrs by CLSI protocol based analysis; type: functional
[14] = test system: Salmonella enterica; assay: Antibacterial activity against Salmonella enterica ATCC 14028 assessed as reduction in bacterial growth after 24 hrs by CLSI protocol based analysis; type: functional
[15] = test system: Enterococcus faecalis; assay: Antibacterial activity against Enterococcus faecalis ATCC 19433 assessed as reduction in bacterial growth after 24 hrs by CLSI protocol based analysis; type: functional

`CCC/C=C/C=C/C=C/[C@@H](O)C[C@]1(O)O[C@H](C[C@H](O)[C@@H](O)[C@H](O)[C@H]2OC(=O)[C@@H](C)[C@@H]2O)[C@@H](O)[C@H](O)[C@@H]1O` was tested, and the Activity [1] was “Active”, the MIC [2] was > 128 µg/mL and the MIC [3] was > 128 µg/mL. For the same compound, the Activity [4] was “Active”, the MIC [5] was > 128 µg/mL and the MIC [6] was > 128 µg/mL. The Activity [7] was “Active”, the MIC [8] was > 128 µg/mL and the MIC [9] was > 128 µg/mL. The MIC [10] was > 128 µg/mL, the MIC [11] was > 128 µg/mL and the MIC [12] was > 128 µg/mL. For the same compound, the MIC [13] was > 128 µg/mL, the MIC [14] was > 128 µg/mL and the MIC [15] was > 128 µg/mL.

Reference: ChEMBL document CHEMBL5344449, “Retinestatin, a Polyol Polyketide from a Termite Nest-Derived Streptomyces sp” (2024)
